Reference: patent US20220304942A1, “TREATMENT OF OBESITY AND RELATED CONDITIONS” (University of Greenwich, priority 2019, published 2022)

How the values were obtained:
[1] = test system: male, wild-type C57BL/6 mice; experiment: Short term (four-week) dosing of 2,3-butanediol in drinking water to wild-type mice; assay type: in vivo; conditions: 28 days
Procedure: 2,3-butanediol was then administered over a four-week dosing period to wild-type mice. The 2,3-butanediol was delivered to male, wild-type C57BL/6 mice in drinking water, from 13 to 17 weeks of age. Dose delivery estimation was based on mouse average water consumption. Groups of male mice were either untreated, treated with 60, 250 or 600 mg/kg 2,3-butanediol in their drinking water. Water was changed twice weekly. Weights of mice and food intake were recorded. Urine was collected on day 0 (age 13 weeks, pre-treatment) and at 28 days post-treatment (mice aged 17 weeks) and analysed for 2,3-butanediol.
Blood was collected on day 0 (age 13 weeks) and at 28 days post-treatment (mice aged 17 weeks). Plasma was isolated and analysed. At termination of experiment, epidydimal fat pads (EWAT) were weighed and expressed as EWAT:Body weight ratios, […]

[2] = test system: WT mice; experiment: Longer term dosing of 2,3-butanediol to WT mice, with washout cohort; assay type: in vivo
Procedure: Male mice were dosed with 200 mg/kg/day 2,3-butanediol from age 8 weeks to age 29 weeks. Mice were housed 4 to a cage. […], treatment was removed from one cohort, called the ‘washout 6 weeks’. Treatment continued in one cohort, called ‘treatment throughout’. Urine collected 1 week following removal of 2,3-butanediol confirmed the absence of 2,3-butanediol in the washout cohorts. At the end of the experiment blood was collected and plasma isolated and analysed. Mice were culled, and final body weights and epidydimal fat deposits recorded.

[3] = test system: Sprague-Dawley rat adipocytes; conditions: cited from earlier work
[4] = 60, 250 or 600 mg/kg in drinking water
[5] = 250 and 600 mg/kg/day doses in drinking water
[6] = 200 mg/kg/day from age 8 weeks to age 29 weeks, male mice
[7] = 200 mg/kg/day from age 8 weeks, treatment removed at age 22 weeks, 6 week washout on water alone

For `CC(O)C(C)O` (stereo not drawn) [2,3-butanediol], the plasma cholesterol ([1]; 250 mg/kg/day dose in drinking water) was “significantly reduced”, the “Epididymal white adipose tissue (EWAT) to body weight ratios” value ([1]; 250 mg/kg/day dose in drinking water, mice aged 13 to 17 weeks) was “significantly reduced” and the plasma alanine aminotransferase [1, 4] was “No changes”. The plasma alkaline phosphatase [1, 4] was “No changes”, the plasma aspartate aminotransferase [1, 4] was “No changes” and the “Plasma free fatty acids” value [1, 5] was “significantly reduced”. For the same compound, the Plasma lactate dehydrogenase [1, 5] was “significantly reduced”, the Plasma triglycerides [1, 5] was “significantly reduced” and the “fat (EWAT/body weight)” value [2, 6] was “significant reductions”. The plasma cholesterol [2, 6] was “significant reductions”, the “treatment effect on fat (EWAT/body weight) after washout” value [2, 7] was “persistent” and the “treatment effect on plasma cholesterol after washout” value [2, 7] was “persistent”. The “2,3-butanediol in urine after removal of treatment” value ([2]; urine collected 1 week following removal of 2,3-butanediol, washout cohorts) was “absence”, the “14C-glucose incorporation into triglyceride glycerol” value ([3]; at higher concentrations) was “inhibitor” and the “14C-glucose incorporation into triglyceride fatty acid” value [3] was “potent inhibitor”.
